Measurements published in patent publication US20250073230A1, “USE OF PLINABULIN IN COMBINATION WITH IMMUNE CHECKPOINT INHIBITORS” (BeyondSpring Pharmaceuticals, Inc., priority 2015, published 2025).
“Also recorded” adds a separate entry of the source.

How the values were obtained:
SP37A3 DCs [1] = experiment: Expression of DC maturation markers CD40, CD80, CD86 and MHCII by flow cytometry; assay type: cell-based, mouse; conditions: 0.001-10 μM, 20 h
Method: Cell lines: The immature mouse DC cell line SP37A3 (provided by Merck KGaA) was cultured in Iscove's Modified Dulbecco's Medium (IMDM; Sigma) supplemented with 10% heat-inactivated and endotoxin-tested FBS (PAA), sodium pyruvate (Gibco), penicillin/streptomycin L-glutamine mix (Gibco), Eagle's Minimum Essential Medium (MEM) nonessential amino acids (Sigma), Ciproxin (Bayer), and 0.05 mmol/L 2-mercaptoethanol (Gibco). IMDM complete medium was supplemented with 20 ng/mL recombinant mouse GM-CSF and 20 ng/mL recombinant mouse M-CSF (both Peprotech). The murine tumor cell lines EG7 and 3LL-OVA were obtained from ATCC or provided by Douglas T. Fearon (Cancer Research UK Cambridge Institute, Li Ka Shing Centre, University of Cambridge, Cambridge, UK), respectively. All cell lines were tested and validated to be Mycoplasma-free. Expression of OVA in EG7 and 3LL-OVA, and of Thy1.1 in RMAThy1.1, respectively, was confirmed; no genomic authentication was performed.
SP37A3 DCs (murine DC line, Merck) were plated (8×10^4 cells/well, 96-well flat bottom, tissue-culture treated) in 180 uL IMDM complete medium [IMDM medium (Sigma) supplemented with 10% heat-inactivated and endotoxin-tested FBS (PAA), sodium pyruvate (Gibco), penicillin/streptomycin L-glutamine mix (Gibco), MEM nonessential amino acids (Sigma) and 0.05 mM 2-mercaptoethanol (Gibco)]. IMDM complete medium was supplemented with 20 ng/mL recombinant mouse GM-CSF. DCs were allowed to adhere for two hours before Plinabulin, medium, or LPS as controls were added 10× concentrated in 20 uL. DCs were incubated with Plinabulin in various concentrations (0.001 μM, 0.01 μM, 0.1 μM, 1 μM, 10 μM), medium, and LPS respectively for 20 h. Supernatants of these cultures were collected and used for detection of cytokine production by ELISA (kits available from BD) and the cells were stained with the LD-IR viability dye (Invitrogen) as well as with fluorochrom-labeled monoclonal antibodies against CD80, CD86, CD40 and MHCII for flow cytometric analysis. Cells were analyzed using a BD Fortessa Cytometer equipped with DIVA software. Mean fluorescence intensity (MFI) of the DC maturation markers CD40, CD80, CD86 and MHCII in live cells was normalized to the MFI of those markers detected in untreated (medium) DCs.
Two other cancer drugs, Paclitaxel and Etoposide, were also tested to compare their effects on DC maturation with Plinabulin. […] Cells were analyzed using a BD Fortessa Cytometer equipped with DIVA software. Mean fluorescence intensity (MFI) of the DC maturation markers CD40 (FIG. 2A), CD80 (FIG. 2B), CD86 (FIG. 2C) and MHCII (FIG. 2D) in live cells was normalized to the MFI of those markers detected in untreated (medium) DCs. […]

SP37A3 DCs [2] = experiment: DC viability (SytoxGreen staining); assay type: cell-based, mouse; conditions: FIG. 1B, 0.001-10 μM, 20 h
SP37A3 DCs [3] = experiment: Production of pro-inflammatory cytokines by DCs (ELISA of supernatants); assay type: cell-based, mouse; conditions: Example 2, FIG. 3A-3C, 20 h
Method: Two other cancer drugs, Paclitaxel and Etoposide, were also tested to compare their effects on DC maturation with Plinabulin. SP37A3 DCs (murine DC line, Merck) were plated (8×10^4 cells/well, 96-well flat bottom, tissue-culture treated) in 180 uL IMDM complete medium [IMDM medium (Sigma) supplemented with 10% heat-inactivated and endotoxin-tested FBS (PAA), sodium pyruvate (Gibco), penicillin/streptomycin L-glutamine mix (Gibco), MEM nonessential amino acids (Sigma) and 0.05 mM 2-mercaptoethanol (Gibco)]. IMDM complete medium was supplemented with 20 ng/mL recombinant mouse GM-CSF. DCs were allowed to adhere for two hours before Plinabulin, Paclitaxel, Etoposide, medium, or LPS (positive control) were added 10× concentrated in 20 uL. […] Cells were analyzed using a BD Fortessa Cytometer equipped with DIVA software. Mean fluorescence intensity (MFI) of the DC maturation markers CD40 (FIG. 2A), CD80 (FIG. 2B), CD86 (FIG. 2C) and MHCII (FIG. 2D) in live cells was normalized to the MFI of those markers detected in untreated (medium) DCs. The production of the pro-inflammatory cytokines IL-1β(FIG. 3A), IL-6 (FIG. 3B), and IL-12p40 (FIG. 3C) were also determined by ELISA.

MC-38 tumor cells [4] = experiment: MC-38 tumor model, Plinabulin with PD-1 antibody and CTLA-4 antibody (Example 7); assay type: in vivo, mice; conditions: Example 7, FIG. 4B; six treatment groups
Method: The combined treatment with Plinabulin and a PD-1 checkpoint inhibitor in combination with a CTLA-4 checkpoint inhibitor was tested in comparison with the treatment with Plinabulin alone, the treatment with PD-1 antibody alone, or the treatment with PD-1 antibody in combination with CTLA-4 antibody. The tests were performed using seven to ten-week old mice that were injected subcutaneously with MC-38 tumor cells. Six testing groups were prepared, and each group included 10 mice. Group 1 was administered with IgG2a and plinabulin vehicle; Group 2 was administered with Plinabulin dissolved in diluent at a concentration of 7.5 mg/kg; Group 3 was administered with PD-1 antibody; Group 4 was administered with a Plinabulin/PD-1 antibody combined treatment; Group 5 was administered combined PD-1/CTLA-4 antibodies; and Group 6 was administered combined PD-1 antibody/CTLA-4 antibody/Plinabulin treatment. For the Plinabulin/PD-1 antibody combined treatment (Group 4) and the Plinabulin/PD-1/CTLA-4 antibody treatment (Group 6), the mice were administered twice per week (Day 1 and Day 4 of each week) with Plinabulin (7.5 mg/kg) that was dissolved in diluent, followed by administering antibody (ies) one hour after each Plinabulin administration. […] At necropsy the tissues were weighed and subjected to FACS analysis.

MC-38 tumor cells [5] = experiment: FACS analysis of the tumors at necropsy, MC-38 CRC tumor model (Example 7); assay type: in vivo, mice
Method: The combined treatment with Plinabulin and a PD-1 checkpoint inhibitor in combination with a CTLA-4 checkpoint inhibitor was tested in comparison with the treatment with Plinabulin alone, the treatment with PD-1 antibody alone, or the treatment with PD-1 antibody in combination with CTLA-4 antibody. The tests were performed using seven to ten-week old mice that were injected subcutaneously with MC-38 tumor cells. Six testing groups were prepared, and each group included 10 mice.
Group 1 was administered with IgG2a and plinabulin vehicle; Group 2 was administered with Plinabulin dissolved in diluent at a concentration of 7.5 mg/kg; Group 3 was administered with PD-1 antibody; Group 4 was administered with a Plinabulin/PD-1 antibody combined treatment; Group 5 was administered combined PD-1/CTLA-4 antibodies; and Group 6 was administered combined PD-1 antibody/CTLA-4 antibody/Plinabulin treatment. For the Plinabulin/PD-1 antibody combined treatment (Group 4) and the Plinabulin/PD-1/CTLA-4 antibody treatment (Group 6), the mice were administered twice per week (Day 1 and Day 4 of each week) with Plinabulin (7.5 mg/kg) that was dissolved in diluent, followed by administering antibody (ies) one hour after each Plinabulin administration. For the Plinabulin only treatment (Group 2) or the antibody (ies) only treatment (Groups 3 and 5), mice were administered Plinabulin (7.5 mg/kg dissolved in diluent) or antibody (ies) alone twice per week (Day 1 and Day 4 of each week).
Each treatment started at tumor size of around 125 mm^3 and continued until tumor size of 3000 mm^3 was reached. […] To determine the efficacy of each treatment, the following data were collected: mortality rate prior to tumor size reaching 3000 mm^3; the body weight of the mice assessed twice weekly both prior to treatments; the rate of tumor growth as determined by the tumor size measurement (twice every week); the tumor growth index; overall survival rate; the tumor weight at necropsy; and the time required to increase tumor size 10 fold. […]

CC(C)(C)c1[nH]cnc1/C=c1\[nH]c(=O)/c(=C/c2ccccc2)[nH]c1=O [Plinabulin, (3Z,6Z)-3-Benzylidene-6-{[5-(2-methyl-2-propanyl)-1H-imidazol-4-yl]methylene}-2,5-piperazinedione]
expression of DC maturation markers CD40, CD80, CD86 and MHCII (MFI normalized to untreated DCs) (SP37A3 DCs [1]; Example 1, FIG. 1A): significantly increased expression of all four DC maturation markers
expression of DC maturation markers CD40, CD80, MHCII and CD86 compared with Paclitaxel and Etoposide (SP37A3 DCs [1]; Example 2, FIG. 2A-2D): much greater expression of all four DC maturation markers
expression of DC maturation markers compared with positive control LPS (SP37A3 DCs [1]; Example 2, FIG. 2A-2D): significantly increased expression of all four markers
induction of DC maturation, rank among Plinabulin, Paclitaxel and Etoposide (SP37A3 DCs [1]; Example 2): most potent inducer of DC maturation among all three drugs
DC viability (SP37A3 DCs [2]): did not change significantly
production of IL1b, IL6 and IL12 (IL-12p40) compared with Paclitaxel, Etoposide and LPS (SP37A3 DCs [3]): increased production of IL1b, IL6, and IL12
mean tumor weight at necropsy (MC-38 tumor cells [4]): decreased tumor weight at necropsy
percentage of Treg cells in tumor (MC-38 tumor cells [5]; FIG. 5A, vs comparator group without plinabulin): reduction in % Treg cells; also recorded: decreased percentage of Regulatory T cells
ratio of CD8+ cells to Treg cells in tumor (MC-38 tumor cells [5]; FIG. 5B): increase in the ratio of CD8+/Treg cells
percentage of macrophages in CD45+ lymphocytes in tumor (MC-38 tumor cells [5]; FIG. 5C, vs respective comparator groups): decreased percentage of macrophage stained cells
